Test results: publication PMC8026785, “The pharmacokinetics of [^18F]UCB-H revisited in the healthy non-human primate brain” (EJNMMI Research, 2021)
“And” between values parts separate entries of the source, which are not always exact repeats. Equal entries are not always repeated.

Target: T1, SV2A (Macaca fascicularis, UniProt Q4R4X3)
T1 construct: The current study evaluates [^18F]UCB-H pharmacokinetics in healthy NHPs; from tissue; host or cells: brain of living healthy cynomolgus monkeys (in vivo PET)
T1 sequence (Q4R4X3 whole entry): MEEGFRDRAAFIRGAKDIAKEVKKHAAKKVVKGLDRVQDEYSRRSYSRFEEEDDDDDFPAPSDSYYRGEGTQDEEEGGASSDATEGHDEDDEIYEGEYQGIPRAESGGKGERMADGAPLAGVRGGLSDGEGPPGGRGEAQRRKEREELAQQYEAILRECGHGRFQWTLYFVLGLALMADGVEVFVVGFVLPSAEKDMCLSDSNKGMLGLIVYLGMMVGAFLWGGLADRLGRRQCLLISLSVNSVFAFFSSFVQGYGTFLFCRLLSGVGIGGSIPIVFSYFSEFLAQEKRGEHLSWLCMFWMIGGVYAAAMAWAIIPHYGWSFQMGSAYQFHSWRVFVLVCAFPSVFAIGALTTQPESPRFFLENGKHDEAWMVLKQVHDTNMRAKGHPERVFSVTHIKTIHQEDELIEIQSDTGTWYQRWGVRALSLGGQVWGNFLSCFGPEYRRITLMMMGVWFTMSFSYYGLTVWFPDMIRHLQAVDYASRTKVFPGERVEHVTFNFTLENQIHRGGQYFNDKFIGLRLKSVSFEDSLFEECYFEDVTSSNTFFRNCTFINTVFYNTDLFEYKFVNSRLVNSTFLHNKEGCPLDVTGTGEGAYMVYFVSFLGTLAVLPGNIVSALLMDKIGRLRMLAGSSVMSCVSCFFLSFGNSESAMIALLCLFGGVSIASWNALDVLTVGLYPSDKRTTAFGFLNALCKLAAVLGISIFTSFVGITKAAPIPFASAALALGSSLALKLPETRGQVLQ
Test: Brain PET kinetic modelling (1TCM, 2TCM, 2TCM-c, Logan), test-retest
Format: in vivo, cynomolgus monkeys (Macaca fascicularis)
Method: All four non-human primates (NHP) underwent a 2-h (2 h) test and retest PET scan; two NHP underwent an additional 4-h (4 h) retest PET scan. Three NHP underwent one 4-h (4 h) displacement PET scan. Arterial blood sampling was performed during test and retest scans with PET imaging spaced by at least 3 weeks between each scan. To this end, the femoral artery opposite to the saphenous vein used for radioligand injection was cannulated. For the 2-h (2 h) scans, we collected in total 28 blood samples of 1 mL: 16 samples during the first 5 min followed by […] every 5 min and […] every 10 min. For the 4 h scans, we collected an additional 6 samples every 20 min during the last two hours (34 samples in total). Larger samples (2 – 3 mL) were collected at 5, 15, 30, 60, 90, 120 min (2 h) and at 180, 240 min (4 h) for metabolite analysis. Displacement of [^18F]UCB-H was done by intravenous (IV) administration 90 min after [^18F]UCB-H injection of a bolus of 30 mg/kg LEV, or of 80 µg/kg (≈250 nmol/kg) or 5 mg/kg (≈15 µmol/kg) of cold [^19F]-UCB-H. Full experimental design of all NHP is outlined in Additional file 1: Table 1.
PET imaging was performed on the microPET FOCUS220 (Siemens) under standard anesthesia and monitoring procedures. Data acquisition started with the IV bolus injection of [^18F]UCB-H (32.9 ± 1.0 MBq/kg, 0.35 ± 0.07 µg/kg). Dynamic PET images were reconstructed using standard OSEM-2D algorithms while correcting for radioactive decay, scatter, attenuation and detectors inhomogeneity, which were measured prior to PET scanning using respectively ^57Co and ^68Ge external sources.
PET image analysis was performed using PMOD software version 3.8 (PMOD Technologies Ltd., Zurich, Suisse). After individual co-registration of PET-MR images, a cynomolgus atlas published by Ballanger and coworkers was normalized to PET images to extract time activity curves in different brain regions. Volumes of interest (VOI) were cerebral white matter (16.7 cm^3), striatum (0.24 cm^3), thalamus (0.89 cm^3), cerebellum (3.83 cm^3), frontal—(2.50 cm^3), parietal—(5.35 cm^3), and temporal (8.22 cm^3) cortex, and whole brain (72.2 cm^3) as a composite region of all regions in the atlas. [^18F]UCB-H pharmacokinetics were evaluated by analyzing the time activity curves of the test- and retest scans using 1- and 2-tissue compartment models (unconstrained and constrained with global K1/k2 coupled fit across all regions, further referred to as 2TCM and 2TCM-c), and Logan graphical analysis with a fixed t* at 60 min [33] using the arterial plasma input function corrected for radio-metabolites to derive the volume of distribution in each region. Percentage standard error (%SE) was estimated from the theoretical parameter covariance matrix. Only reliable estimates (%SE less than 25%) were included in the current analyses. For the three drug studies, percent displacement of the total activity in the whole brain was estimated relative to an average baseline constructed from the two 4 h baseline studies. Briefly, Standardized Uptake Value (SUV) time activity curves (TACs) were calculated for the two baseline and the three displacement studies. Then, each curve was normalized to the SUV at t = 90 min, corresponding to the timeframe immediately before the administration of the drugs in the displacement studies. Baseline curves were averaged and the percent displacement of total activity was calculated as (baseline-displacement)/baseline at a given time post drug administration (see “Results”).
Statistical analysis was performed using R software (version 3.3.1.). Plasma, intact parent fraction and time activity curves were statistically compared between subjects using a one-factor variance analysis. Absolute Test–Retest variability (aTRV) of PET quantification parameters was calculated as ABS(test—retest) / AVERAGE(test, retest). […]

[1] = White Matter, Retest, individual NHP
[2] = White Matter, Test, individual NHP

O=C1C[C@H](c2cc(F)c(F)c(F)c2)CN1Cc1ccncc1[18F] [[^18F]UCB-H]
k3/k4 (2TCM-c) (Thalamus, Retest, individual NHP): 0.64 and 2.00 and 0.90 and 0.33
VT (1TCM) (Thalamus, Retest, mean): 13.4 mL/cm^3
VT (2TCM) (Thalamus, Retest, mean): 13.0 mL/cm^3
VT (2TCM-c) (Thalamus, Retest, mean): 14.2 mL/cm^3
VT (Logan (t* = 60)) (Thalamus, Retest, mean): 14.3 mL/cm^3
k3/k4 (BPND) (2TCM-c) (Thalamus, Retest, mean): 0.97
K1 (2TCM) (Thalamus, Test, individual NHP): 0.21 ml/cm^3 /min and 0.24 ml/cm^3 /min and 0.45 ml/cm^3 /min and 0.53 ml/cm^3 /min
K1 (2TCM-c) (Thalamus, Test, individual NHP): 0.20 ml/cm^3 /min and 0.25 ml/cm^3 /min and 0.48 ml/cm^3 /min and 0.54 ml/cm^3 /min
K1/k2 (2TCM) (Thalamus, Test, individual NHP): 11.03 ml/cm^3 and 7.51 ml/cm^3 and 12.45 ml/cm^3 and 12.69 ml/cm^3
K1/k2 (2TCM-c) (Thalamus, Test, individual NHP): 7.86 ml/cm^3 and 4.35 ml/cm^3 and 8.22 ml/cm^3 and 10.99 ml/cm^3
VT (1TCM) (Thalamus, Test, individual NHP): 12.88 ml/cm^3 and 10.42 ml/cm^3 and 16.04 ml/cm^3 and 14.02 ml/cm^3
VT (2TCM) (Thalamus, Test, individual NHP): 13.65 ml/cm^3 and 17.60 ml/cm^3
VT (2TCM-c) (Thalamus, Test, individual NHP): 17.47 ml/cm^3 and 11.10 ml/cm^3 and 16.27 ml/cm^3 and 15.12 ml/cm^3
VT (Logan) (Thalamus, Test, individual NHP): 14.58 ml/cm3 and 12.30 ml/cm3 and 17.00 ml/cm3 and 15.59 ml/cm3
k3/k4 (2TCM) (Thalamus, Test, individual NHP): 0.82
k3/k4 (2TCM-c) (Thalamus, Test, individual NHP): 1.00 and 1.56 and 1.18 and 0.38
VT (1TCM) (Thalamus, Test, mean): 13.3 mL/cm^3
VT (2TCM) (Thalamus, Test, mean): 15.6 mL/cm^3
VT (2TCM-c) (Thalamus, Test, mean): 15.0 mL/cm^3
VT (Logan (t* = 60)) (Thalamus, Test, mean): 14.9 mL/cm^3
k3/k4 (BPND) (2TCM-c) (Thalamus, Test, mean): 1.03
K1 (2TCM) [1]: 0.29 ml/cm^3 /min and 0.49 ml/cm^3 /min and 0.32 ml/cm^3 /min and 0.35 ml/cm^3 /min
K1 (2TCM-c) [1]: 0.30 ml/cm^3 /min and 0.44 ml/cm^3 /min and 0.32 ml/cm^3 /min and 0.35 ml/cm^3 /min
K1/k2 (2TCM) [1]: 1.66 ml/cm^3 and 10.04 ml/cm^3 and 11.74 ml/cm^3
K1/k2 (2TCM-c) [1]: 7.25 ml/cm^3 and 4.64 ml/cm^3 and 9.07 ml/cm^3 and 10.70 ml/cm^3
VT (1TCM) [1]: 10.59 ml/cm^3 and 12.63 ml/cm^3 and 13.80 ml/cm^3 and 12.91 ml/cm^3
VT (2TCM) [1]: 10.58 ml/cm^3 and 12.82 ml/cm^3 and 14.29 ml/cm^3
VT (2TCM-c) [1]: 10.59 ml/cm^3 and 12.79 ml/cm^3 and 18.23 ml/cm^3 and 13.35 ml/cm^3
VT (Logan) [1]: 11.11 ml/cm3 and 12.93 ml/cm3 and 16.97 ml/cm3 and 13.41 ml/cm3
k3/k4 (2TCM) [1]: 6.72
k3/k4 (2TCM-c) [1]: 0.46 and 1.76 and 0.27
K1 (2TCM) [2]: 0.17 ml/cm^3 /min and 0.19 ml/cm^3 /min and 0.41 ml/cm^3 /min
K1 (2TCM-c) [2]: 0.17 ml/cm^3 /min and 0.20 ml/cm^3 /min and 0.42 ml/cm^3 /min
K1/k2 (2TCM) [2]: 9.57 ml/cm^3 and 6.00 ml/cm^3 and 9.76 ml/cm^3 and 11.24 ml/cm^3
K1/k2 (2TCM-c) [2]: 7.86 ml/cm^3 and 4.35 ml/cm^3 and 8.22 ml/cm^3 and 10.99 ml/cm^3
VT (1TCM) [2]: 12.00 ml/cm^3 and 9.44 ml/cm^3 and 14.88 ml/cm^3 and 12.88 ml/cm^3
VT (2TCM) [2]: 11.61 ml/cm^3 and 16.36 ml/cm^3
VT (2TCM-c) [2]: 15.44 ml/cm^3 and 10.47 ml/cm^3 and 15.61 ml/cm^3
VT (Logan) [2]: 14.19 ml/cm3 and 11.20 ml/cm3 and 15.99 ml/cm3 and 14.37 ml/cm3
k3/k4 (2TCM) [2]: 0.94
k3/k4 (2TCM-c) [2]: 1.41 and 1.09
ICC of 2TCM-c VT (White matter): 0.43
ICC of Logan (t* = 60) VT (White matter): 0.62
aTRV of 2TCM-c VT (White matter): 24%
aTRV of Logan (t* = 60) VT (White matter): 13%
VT (1TCM) (White matter, Retest, mean): 12.5 mL/cm^3
VT (2TCM) (White matter, Retest, mean): 12.6 mL/cm^3
VT (2TCM-c) (White matter, Retest, mean): 13.7 mL/cm^3
VT (Logan (t* = 60)) (White matter, Retest, mean): 13.6 mL/cm^3
k3/k4 (BPND) (2TCM-c) (White matter, Retest, mean): 0.83
VT (1TCM) (White matter, Test, mean): 12.3 mL/cm^3
VT (2TCM) (White matter, Test, mean): 14.0 mL/cm^3
VT (2TCM-c) (White matter, Test, mean): 13.8 mL/cm^3
VT (Logan (t* = 60)) (White matter, Test, mean): 13.9 mL/cm^3
k3/k4 (BPND) (2TCM-c) (White matter, Test, mean): 1.25
BPND lower compared to [^11C]UCB-J and other [^18F]-labelled SV2A radioligands (cynomolgus NHP): 3 to fourfold lower
VT lower compared to [^11C]UCB-J and other [^18F]-labelled SV2A radioligands (cynomolgus NHP): ~ 50%
free fraction in tissue fND (cynomolgus monkey, in vivo): 6.1 ± 1.3% and ~ 6%
tissue influx parameter K1 (grey matter regions, 2TCM and 2TCM-c): 0.37 ± 0.01 mL/cm^3/min
average VND (K1/k2 from 2TCM-c) (over all VOIs and animals): 7.89 ± 1.23 mL/cm^3
